Experimental data as given in paper PMC4734766, “Pentamidine Is Not a Permeant but a Nanomolar Inhibitor of the Trypanosoma brucei Aquaglyceroporin-2” (PLoS Pathogens, 2016).
Positions count from the first letter of the chain named. Like-named read-outs stand apart in the source and are kept apart here.

Tests used:
TbAQP2 = target: T1, TbAQP2 (Trypanosoma brucei brucei, UniProt Q6ZXT3)
T1 sequence (Q6ZXT3 1-312): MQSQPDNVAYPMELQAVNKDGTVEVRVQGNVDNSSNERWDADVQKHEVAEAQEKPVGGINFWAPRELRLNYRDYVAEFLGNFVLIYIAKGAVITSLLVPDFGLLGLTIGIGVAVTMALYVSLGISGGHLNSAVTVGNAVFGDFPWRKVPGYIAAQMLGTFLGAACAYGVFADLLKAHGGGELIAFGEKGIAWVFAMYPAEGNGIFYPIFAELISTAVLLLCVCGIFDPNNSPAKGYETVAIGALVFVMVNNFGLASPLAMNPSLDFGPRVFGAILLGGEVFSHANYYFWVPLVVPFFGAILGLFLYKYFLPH

TbAQP2 Asp265Ala = TbAQP2 Asp265Ala (Trypanosoma brucei brucei, UniProt Q6ZXT3, D265A); assay: cell-based; conditions: read-out: IC50, pentamidine inhibition of TbAQP2 Asp265Ala
TbAQP2 Leu264Arg = target: T2, TbAQP2 Leu264Arg (Trypanosoma brucei brucei, UniProt Q6ZXT3, L264R); format: cell-based
T2 sequence (Q6ZXT3 1-312 L264R): T1 sequence (Q6ZXT3 1-312) with L264R

NCC(O)CO (centres unmarked) [3-aminopropane-1,2-diol]
rate of passage through TbAQP2 relative to glycerol (TbAQP2; pH 9.2): two thirds the rate of glycerol

N=C(N)c1ccc(OCCCCCOc2ccc(C(=N)N)cc2)cc1 [pentamidine]
IC50 (TbAQP2 Asp265Ala; pH 2.5): 5.8 µM
IC50 (TbAQP2 Asp265Ala; pH 7.2): 4.5 µM
inhibition of TbAQP2 Leu264Arg (TbAQP2 Leu264Arg): failed to inhibit

N=CN [formamidine]
permeability of TbAQP2 for small cations (TbAQP2; not told): impermeable
